One molecule from ChEMBL document CHEMBL5726126, “2-pyridylamino-4-nitrile-piperidinyl orexin receptor antagonists” (2017) can be followed below.

SMILES strings stand for the structures.

In this assay the target is T1, Orexin receptor type 2 (Homo sapiens, UniProt O43614).
T1 sequence (O43614 whole entry): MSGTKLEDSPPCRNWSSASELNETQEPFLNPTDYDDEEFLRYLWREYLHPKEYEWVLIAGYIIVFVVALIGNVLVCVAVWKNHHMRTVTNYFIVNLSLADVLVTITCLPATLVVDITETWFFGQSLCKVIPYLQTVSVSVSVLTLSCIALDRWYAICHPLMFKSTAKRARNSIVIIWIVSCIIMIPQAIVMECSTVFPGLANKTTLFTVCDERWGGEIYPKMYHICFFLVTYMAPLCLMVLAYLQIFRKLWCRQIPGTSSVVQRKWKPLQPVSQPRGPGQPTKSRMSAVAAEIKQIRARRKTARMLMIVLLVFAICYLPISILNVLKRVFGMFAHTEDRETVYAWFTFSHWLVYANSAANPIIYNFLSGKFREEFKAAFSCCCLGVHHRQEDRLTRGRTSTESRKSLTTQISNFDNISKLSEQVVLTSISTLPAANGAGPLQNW
Put plainly: FLIPR Ca2+ Flux Assay: FLIPR Ca2+ Flux Assay- (Okumura et al., Biochem. Biophys. Res. Comm. 280:976-981, 2001). In a typical experiment the OX1 and OX2 receptor antagonistic activity of the compounds of the present invention was determined in accordance with the following experimental method. For intracellular calcium measurements, Chinese hamster ovary (CHO) cells expressing the rat orexin-1 receptor or the human orexin-2 receptor, are grown in Iscove's modified DMEM containing 2 mM L-glutamine, […], 1% hypoxanthine-thymidine supplement, 100 U/ml penicillin, 100 μg/ml streptomycin and 10% heat-inactivated fetal calf serum (FCS). The cells are seeded at 20,000 cells/well into Becton-Dickinson black 384-well clear bottom sterile plates coated with poly-D-lysine. All reagents were from GIBCO-Invitrogen Corp. The seeded plates are incubated overnight at […]. and 5% CO2. Ala-6,12 human orexin-A as the agonist is prepared as a 1 mM stock solution in 1% bovine serum albumin (BSA) and diluted in assay buffer (HBSS containing 20 mM HEPES, 0.1% BSA and 2.5 mM probenecid, pH7.4) for use in the assay at a final concentration of 70 pM. Test compounds are prepared as 10 mM stock solution in DMSO, then diluted in 384-well plates, first in DMSO, then assay buffer. […]. In kind it is cell-based.

As for `CC(=O)N(c1cc(C#N)ccn1)[C@@H]1CC[C@@H](C)N(C(=O)c2ccccc2-n2nccn2)C1`, the IC50 was 1.78 µM.
